According to ChEMBL document CHEMBL5380779, “Small Molecules Targeting the RNA-Binding Protein HuR Inhibit Tumor Growth in Xenografts” (J Med Chem, 2023):
Activity calls are given as the source filed them. The rule behind the calls is not given here.

Legend:
[1] = Inhibition of full-length HuR-ARE fluorescein-labeled Msi1 mRNA binding (unknown origin) incubated for 2 hrs by fluorescence polarization assay; parameters: species or system Homo sapiens
[2] = tested on: MDA-MB-231; test: Cytotoxicity against human MDA-MB-231 cells assessed as inhibition of cell growth by MTT assay; type: functional, cell-based
[3] = tested on: MDA-MB-231; test: Antitumor activity against human MDA-MB-231 cells xenografted iv dosed athymic NCr-nu/nu mouse assessed as reduction in tumor size administered 3 times a week for 3 weeks; type: functional, organism-based
[4] = tested on: MDA-MB-231; test: Cytotoxicity against HuR knockout 1 human MDA-MB-231 cells assessed as inhibition of cell growth by MTT assay (reference value: 1.491 uM); type: functional, cell-based
[5] = tested on: MDA-MB-231; test: Inhibition of HuR-16-nt biotinylated ARE Msi1 mRNA binding in human MDA-MB-231 cells at 20 uM by Western blotting analysis based pull-down assay; type: cell-based
[6] = tested on: MDA-MB-231; test: Downregulation of Msi2 protein expression in human MDA-MB-231 cells incubated for 48 hrs by Western blotting analysis; type: functional, cell-based; conditions: dose 5-10 µM
[7] = tested on: MDA-MB-231; test: Downregulation of XIAP protein expression in human MDA-MB-231 cells incubated for 48 hrs by Western blotting analysis; type: functional, cell-based; conditions: dose 5-10 µM
[8] = tested on: MDA-MB-231; test: Inhibition of cell invasion of human MDA-MB-231 cells at 5 uM incubated for 24 hrs by crystal violet staining based analysis; type: functional
[9] = tested on: MDA-MB-231; test: Cytotoxicity against HuR knockout 2 human MDA-MB-231 cells assessed as inhibition of cell growth by MTT assay (reference value: 1.491 uM); type: functional, cell-based
[10] = tested on: MDA-MB-231; test: Inhibition of HuR-16-nt biotinylated ARE Msi1 mRNA binding in human MDA-MB-231 cells at 10 uM by Western blotting analysis based pull-down assay; type: cell-based
[11] = tested on: MDA-MB-231; test: Inhibition of HuR-Bcl-2 mRNA binding in human MDA-MB-231 cells at 5 uM incubated for 6 hrs by RNP immunoprecipitation assay; type: cell-based
[12] = tested on: MDA-MB-231; test: Inhibition of HuR-Msi2 mRNA binding in human MDA-MB-231 cells at 5 uM incubated for 6 hrs by RNP immunoprecipitation assay; type: cell-based
[13] = tested on: MDA-MB-231; test: Inhibition of HuR-XIAP mRNA binding in human MDA-MB-231 cells at 5 uM incubated for 6 hrs by RNP immunoprecipitation assay; type: cell-based
[14] = tested on: MDA-MB-231; test: Downregulation of Bcl-2 protein expression in human MDA-MB-231 cells incubated for 48 hrs by Western blotting analysis; type: functional, cell-based; conditions: dose 5-10 µM
[15] = molecular target: ELAV-like protein 1 (Homo sapiens) (UniProt Q15717); test: Thermal stabilization of HuR in human MDA-MB-231 cells at 10 uM at 42 to 54 degreeC incubated for 1 hr by western blot based cellular thermal shift assay; type: cell-based
Chain of ELAV-like protein 1 (Homo sapiens) (Q15717 whole entry): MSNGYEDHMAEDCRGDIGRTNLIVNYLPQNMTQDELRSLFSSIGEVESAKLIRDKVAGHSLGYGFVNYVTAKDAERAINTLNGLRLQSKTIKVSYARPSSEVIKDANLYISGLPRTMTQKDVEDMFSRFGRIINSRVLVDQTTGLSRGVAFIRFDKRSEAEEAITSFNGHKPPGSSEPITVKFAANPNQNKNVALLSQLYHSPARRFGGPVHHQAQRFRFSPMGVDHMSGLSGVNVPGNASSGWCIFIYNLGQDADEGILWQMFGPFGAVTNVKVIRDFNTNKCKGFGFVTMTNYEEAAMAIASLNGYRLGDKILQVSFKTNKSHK

[16] = tested on: MDA-MB-231; test: Downregulation of HuR protein expression in human MDA-MB-231 cells at 5 to 10 uM incubated for 48 hrs by Western blotting analysis; type: functional, cell-based; conditions: dose 5-10 µM
[17] = Inhibition of HuR-ARE fluorescein-labeled Msi1 mRNA binding (unknown origin) by fluorescence polarization assay; parameters: species or system Homo sapiens
[18] = tested on: MDA-MB-231; test: Inhibition of HuR-Bcl-2 mRNA binding in human MDA-MB-231 cells at 10 uM incubated for 6 hrs by RNP immunoprecipitation assay; type: cell-based
[19] = tested on: MDA-MB-231; test: Inhibition of HuR-THBS1 mRNA binding in human MDA-MB-231 cells assessed as half life of THBS1 in presence of actinomycin D (reference value: 10.46 hrs); type: cell-based
[20] = tested on: MDA-MB-231; test: Inhibition of HuR-Msi2 mRNA binding in human MDA-MB-231 cells at 10 uM incubated for 6 hrs by RNP immunoprecipitation assay; type: cell-based
[21] = tested on: MDA-MB-231; test: Inhibition of HuR-XIAP mRNA binding in human MDA-MB-231 cells at 10 uM incubated for 6 hrs by RNP immunoprecipitation assay; type: cell-based
[22] = tested on: MDA-MB-231; test: Inhibition of HuR-TGFB2 mRNA binding in human MDA-MB-231 cells assessed as half life of TGFB2 in presence of actinomycin D (reference value: 7.202 hrs); type: cell-based
[23] = tested on: MDA-MB-231; test: Inhibition of cell invasion of human MDA-MB-231 cells at 10 uM incubated for 24 hrs by crystal violet staining based analysis; type: functional
[24] = molecular target: ELAV-like protein 1 (Homo sapiens) (UniProt Q15717); test: Thermal stabilization of HuR in human MDA-MB-231 cells at 20 uM at 42 to 54 degreeC incubated for 1 hr by western blot based cellular thermal shift assay; type: cell-based

| Compound | Ki [1] | IC50 [2] | also measured |
| --- | --- | --- | --- |
| CCOC(=O)c1cc2cc(NS(=O)(=O)c3ccc(C(C)(C)C)cc3)ccc2[nH]1 | > 20 µM | 31.8 µM |  |
| CCOC(=O)c1cc2cc(NC(=O)c3ccc(N(C)C)cc3)ccc2[nH]1 |  | > 100 µM |  |
| O=C(O)c1cc2cc([N+](=O)[O-])ccc2[nH]1 | 6.95 µM |  | IC50 [1]: 29.7 µM |
| CC(C)(C)c1ccc(C(=O)O)cc1 |  |  | IC50 [1]: > 200 µM |
| CC(=O)O[C@@]12CO[C@@H]1C[C@H](O)[C@@]1(C)C(=O)[C@H](O)C3=C(C)[C@@H](OC(=O)[C@H](O)[C@@H](NC(=O)OC(C)(C)C)c4ccccc4)C[C@@](O)([C@@H](OC(=O)c4ccccc4)[C@H]21)C3(C)C |  |  | Activity [3]: Active |
| CN(C)c1ccc(C(=O)Nc2ccc3sc(C(=O)O)cc3c2)cc1 |  | > 100 µM |  |
| COC(=O)c1cc2cc(NC(=O)c3ccc(N(C)C)cc3)ccc2s1 |  | > 100 µM |  |
| CC(C)(C)c1ccc(C(=O)Nc2ccc3[nH]c(C(=O)O)cc3c2)cc1 |  | > 100 µM |  |
| CN(C)c1ccc(C(=O)Nc2ccc3sc(C(=O)NO)cc3c2)cc1 |  | 1.31 µM | IC50 [4]: 3.66 µM; inhibition [5]: inactive; Activity [6]: Dose-Dependent Effect; Activity [7]: Dose-Dependent Effect; inhibition [8]: Active; IC50 [9]: 3.01 µM; inhibition [10]: Active; inhibition [11]: Active; inhibition [12]: Active; inhibition [13]: Active; Activity [14]: Dose-Dependent Effect; Activity [15]: Active; Activity [16]: inactive |
| COC(=O)c1cc2cc(NS(=O)(=O)c3ccc(C(C)(C)C)cc3)ccc2s1 | 15.4 µM | 27.4 µM |  |
| CN(C)c1ccc(C(=O)Nc2ccc3[nH]c(C(=O)O)cc3c2)cc1 |  | 99.8 µM |  |
| CCOC(=O)c1cc2cc(NC(=O)c3ccccn3)ccc2[nH]1 |  | > 100 µM |  |
| O=C(Nc1ccc2sc(C(=O)NO)cc2c1)c1ccccn1 |  | 4.43 µM |  |
| CC(C)(C)c1ccc(S(=O)(=O)Nc2ccc3sc(/C=C/C(=O)NO)cc3c2)cc1 |  |  | IC50 [17]: 3.34 µM; Ki [17]: 0.783 µM |
| CN(C)c1ccc(C(=O)Nc2ccc3[nH]c(/C=C/C(=O)NO)cc3c2)cc1 | 0.69 µM | 8.91 µM |  |
| O=C(Nc1ccc2[nH]c(C(=O)O)cc2c1)c1ccccn1 |  | > 100 µM |  |
| CN(C)c1ccc(C(=O)Nc2ccc3[nH]c(C(=O)NO)cc3c2)cc1 |  | 11.3 µM |  |
| COC(=O)c1cc2cc(NC(=O)c3ccccn3)ccc2s1 |  | > 100 µM |  |
| O=C(Nc1ccc2[nH]c(C(=O)NO)cc2c1)c1ccccn1 |  | 75.3 µM | inhibition [18]: inactive; T1/2 [19]: 9.03 h; inhibition [20]: inactive; inhibition [21]: inactive; T1/2 [22]: 7.09 h; inhibition [23]: inactive; Activity [24]: inactive |
| CC(C)(C)c1ccc(S(=O)(=O)Nc2ccc3[nH]c(C(=O)NO)cc3c2)cc1 | 1.75 µM | 32 µM |  |
| O=C(Nc1ccc2sc(C(=O)O)cc2c1)c1ccccn1 |  | > 100 µM |  |

Continued, in another order:

| Ki [1] | Compound | IC50 [2] | also measured |
| --- | --- | --- | --- |
| 0.44 µM | CC(C)(C)c1ccc(C(=O)Nc2ccc3sc(C(=O)NO)cc3c2)cc1 | 3.71 µM |  |
| 2.42 µM | CC(C)(C)c1ccc(S(=O)(=O)Nc2ccc3sc(C(=O)O)cc3c2)cc1 | > 100 µM |  |
| 3.83 µM | CC(C)(C)c1ccc(C(=O)Nc2ccc3sc(CCC(=O)O)cc3c2)cc1 | 19.8 µM |  |
| > 20 µM | CCOC(=O)/C=C/c1cc2cc(NC(=O)c3ccc(C(C)(C)C)cc3)ccc2[nH]1 | 1.13 µM |  |
| 6.17 µM | CC(C)(C)c1ccc(S(=O)(=O)Nc2ccc3[nH]c(C(=O)O)cc3c2)cc1 | > 100 µM |  |
| 7.76 µM | CN(C)c1ccc(C(=O)Nc2ccc3[nH]c(/C=C/C(=O)O)cc3c2)cc1 | > 100 µM |  |
| > 20 µM | COC(=O)c1cc2cc(NC(=O)c3ccc(C(C)(C)C)cc3)ccc2s1 | 5.28 µM |  |
| 0.34 µM | CC(C)(C)c1ccc(C(=O)Nc2ccc3[nH]c(/C=C/C(=O)NO)cc3c2)cc1 | 2.24 µM |  |
| 0.15 µM | CC(C)(C)c1ccc(C(=O)Nc2ccc3sc(/C=C/C(=O)NO)cc3c2)cc1 | 1.33 µM | IC50 [17]: 0.597 µM; Ki [17]: 0.139 µM |
| 3.24 µM | CC(C)(C)c1ccc(S(=O)(=O)Nc2ccc3sc(C(=O)NO)cc3c2)cc1 | 12.9 µM |  |
| 3.35 µM | CC(C)(C)c1ccc(C(=O)Nc2ccc3[nH]c(/C=C/C(=O)O)cc3c2)cc1 | > 100 µM |  |
| 11.8 µM | CCOC(=O)CCc1cc2cc(NC(=O)c3ccc(C(C)(C)C)cc3)ccc2s1 | 6.52 µM |  |
| 0.97 µM | CC(C)(C)c1ccc(C(=O)Nc2ccc3sc(/C=C/C(=O)O)cc3c2)cc1 | 72.1 µM |  |
| 0.83 µM | CC(C)(C)c1ccc(C(=O)Nc2ccc3sc(CCC(=O)NO)cc3c2)cc1 | 3.49 µM |  |
| > 20 µM | CCOC(=O)c1cc2cc(NC(=O)c3ccc(C(C)(C)C)cc3)ccc2[nH]1 | 25.1 µM |  |
| 5.08 µM | CC(C)(C)c1ccc(C(=O)Nc2ccc3sc(C(=O)O)cc3c2)cc1 | 90.5 µM |  |
| 4.39 µM | CCOC(=O)/C=C/c1cc2cc(NC(=O)c3ccc(N(C)C)cc3)ccc2[nH]1 | 76.3 µM |  |
| 13.3 µM | CCOC(=O)/C=C/c1cc2cc(NC(=O)c3ccc(C(C)(C)C)cc3)ccc2s1 | 57.7 µM |  |
